Source: patent publication US11801266B2, “Methods of using anti-MIR126 compounds” (CITY OF HOPE, priority 2019, dated 2023)

Assays:
normal HSCs = experiment: Cell cycling (EdU and DAPI) in human normal HSCs; assay type: cell-based; settings: 500 nM, compared to CpG-scrRNA-treated controls
Protocol: (§1) After transduction performed as above, GFP+ cells selected at 48 h were exposed to NIL (2 μM and 5 μM, Novartis) for another 72 h, and analyzed using assays for cell growth, apoptosis, cell cycle, CFC and CFC replating. Human HSCs and mouse LT-HSCs were also treated with CpG-miR-126 inhibitor or CpG-scrRNA (500 nM), with or without NIL (5 μM), for 72 h and analyzed for cell growth, apoptosis, cell cycle and CFC. Human CML HSCs co-cultured with control or miR-126 KD HUVECs and mouse CML LT-HSCs co-cultured with control or miR-126 KD ECs for 96 h, with or without NIL (5 μM), were also analyzed for cell growth, apoptosis, cell cycle and CFC. Cell growth was measured by Lumino Glo (Promega). Apoptosis was measured by labeling cells with Annexin V-PE or FITC or APC and 4, 6-diamidino-2-phenylindole (DAPI) (all from BD-PharMingen, San Diego, Calif.) and analyzed by flow cytometry. Cell cycle was analyzed by Ki-67-Alexa Fluor 647 (B56, BD) and DAPI labeling based on the manufacturer's protocol. Cells were also exposed to EdU (C10640, Invitrogen) for 2 h and EdU staining was analyzed according to the manufacturer's protocol. Cell proliferation was also measured by CFSE staining (Molecular probes) based on the manufacturer's protocol. […]

CML HSCs = experiment: Cell cycling (EdU and DAPI) in human CML HSCs; assay type: cell-based; settings: 500 nM, compared to CpG-scrRNA-treated controls
Protocol: as §1

normal BM LT-HSCs = experiment: Cell cycling in mouse normal BM LT-HSCs; assay type: cell-based; settings: 500 nM, 72 h
Protocol: as §1

CML BM LT-HSCs = experiment: Cell cycling in mouse CML BM LT-HSCs; assay type: cell-based; settings: 500 nM, 72 h
Protocol: as §1

miR-126 = experiment: In vivo miR-126 down-regulation in sorted LT-HSCs and ECs; set-up: species or system mouse; settings: normal and CML mice, 5 mg/kg/day iv daily for 3 days; QPCR
Protocol: Next, we evaluated CpG-miR-126 inhibitor-Cy3 uptake in mouse LT-HSCs and ECs in vitro and in vivo. […]
To measure the miRNA and mRNA expression, total RNA was extracted using the miRNeasy Mini Kit (Qiagen, Valencia, Calif.). For miRNA expression, reverse transcription using MultiScribe™ Reverse Transcriptase and Q-PCR analysis using Taqman assays (Applied Biosystems) were performed according to the manufacturer's protocol. RNU44 and snoRNA234 was used as internal controls for human and mouse miRNA respectively. For mRNA expression, first-strand cDNA was synthesized using the SuperScript III First-Strand Kit and then QPCR was performed using TaqMan Gene Expression Assays (Thermo Fisher). BCR-ABL expression in human and mouse samples were measured with primer and probe sequences for BCR-ABL (B3A2 or B2A2), as previously described^46. Results are presented as log 2-transformed ratio according to the 2−ΔCt method (ΔCt=Ct of target−Ct of reference).

normal hematopoiesis = experiment: Transplantation of BM cells from treated WT B6 mice into recipient mice; assay type: in vivo, mouse; settings: recipients of BM cells from donor mice treated with scrRNA or inhibitor, 16 weeks after transplantation
CML LSCs = experiment: In vivo treatment of CML mice (SCLtTA/BCR-ABL BM cells transplanted into congenic B6 mice); set-up: species or system mouse
Protocol: Next, we transplanted BM cells from SCLtTA/BCR-ABL mice (CD45.2) into congenic B6 mice (CD45.1). Following confirmation of CML development at 4 weeks after transplantation, mice were treated as above with scrRNA, inhibitor, scrRNA+NIL, or inhibitor+NIL for 3 weeks.

WT B6 mice = experiment: Hematologic toxicity in normal WT B6 mice
Protocol: We treated WT B6 mice with CpG-scrRNA (scrRNA) or CpG-miR-126 inhibitor (inhibitor, 5 mg/kg/day i.v.) for 3 weeks, after which we collected their BM cells and transplanted them into recipient mice (3×10^5 BM cells/mouse).
To determine the in vivo effect of the CpG-miR-126 inhibitor on normal hematopoiesis, normal mice were treated with scrRNA or inhibitor for 3 weeks, followed by assessment of WBC, RBC, PLT counts in PB and BM subpopulations in BM.

[1] = WT B6 mice, 5 mg/kg/day i.v. for 3 weeks, compared with scrRNA-treated control mice

For “5′ G*G*T GCA TCG ATG CAGG*G*G* G*G xxxxx mCmGmC mAmUmU mAmUmU mAmCmU mCmAmC mGmGmU mAmCmG mA-3′ (GGTGCATCGATGCAGGGGGGCGCAUUAUUACUCACGGUACGA; CpG ODN, C3 linkers, phosphorothioate, 2'OMe; (1)..(2) phosphorothioation; (2)..(3) phosphorothioation; (16)..(17) phosphorothioation; (17)..(18) phosphorothioation; (18)..(19) phosphorothioation; (19)..(20) phosphorothioation; (20)..(21) Five C3 carbon chain linkers, ((CH2)3)5; modified_base (21)..(21) cm; modified_base (22)..(22) gm; modified_base (23)..(23) cm; modified_base (24)..(24) 2′-O-Methyladenosine; modified_base (25)..(26) um; mod) [CpG-miR-126 inhibitor]”, the cell cycling (normal HSCs) was “increased cell cycling”, the cell cycling (CML HSCs) was “increased cell cycling” and the cell cycling (normal BM LT-HSCs) was “increased cell cycling”. For the same substance, the cell cycling (CML BM LT-HSCs) was “increased cell cycling”, the “miR-126 down-regulation in sorted LT-HSCs and ECs” value (miR-126) was “significant miR-126 down-regulation” and the “donor LT-HSC numbers in BM” value (normal hematopoiesis) was “no significant differences”. For the same substance, the “donor cell engraftment in PB, BM or spleen” value (normal hematopoiesis) was “no significant differences”, the “miR-126 levels in total ECs, Sca-1+ECs and Sca-1-ECs from BM” value (CML LSCs; CML mice treated 3 weeks, compared with scrRNA-treated mice) was “significantly lower miR-126 levels” and the mice that survived (CML LSCs; CML mice, 3 weeks of treatment, followed 60 days after treatment discontinuation) was 50%. The “numbers of ECs in the BM” value (WT B6 mice; [1]) was “no significant differences”, the “numbers of LT-HSCs in the BM” value (WT B6 mice; [1]) was “no significant differences” and the “numbers of WBCs in PB” value (WT B6 mice; [1]) was “no significant differences”. For the same substance, the “numbers of mononuclear cells in the BM” value (WT B6 mice; [1]) was “no significant differences”, the “numbers of platelets (PLT) in PB” value (WT B6 mice; [1]) was “no significant differences” and the “numbers of red blood cells (RBC) in PB” value (WT B6 mice; [1]) was “increased”. The “pre-clinical toxicity for normal hematopoiesis” value (WT B6 mice; overall conclusion, WT B6 mice treated for 3 weeks) was “lacks pre-clinical toxicity for normal hematopoiesis”.
